The source of these data is patent US8975265B2, “Substituted imidazo[1,2-a]pyrimidines and —pyridines” (Bayer Intellectual Property GmbH, priority 2010, dated 2015).

Assay [1] deals with KPL-4 breast cancer cell line. The assay is described as follows: Tumor cell proliferation assay (CellTiter-Glo, 72 h), KPL-4. The assay is classed as cell-based. Particulars: KPL4, 72h drug exposure. A digest of the protocol: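 KPL-4 cells were treated with compound for 72 h at 37°C. Viability was measured as ATP by CellTiter-Glo luminescence, with a separate t=0 plate read after overnight attachment. A reference compound was run as standard.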

Assay [2] deals with p-AKT1/2/3-S473 in KPL4 breast tumour cell line. The assay is described as follows: Cellular p-AKT1/2/3-S473 assay. The assay is classed as cell-based. As to conditions: KPL4 breast tumour cell line, 2 hours treatment; read-out: pAKT-S743 median IC50. A digest of the protocol:
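KPL4 cells (PIK3CA H1047R, HER2 0/E, hormone independent) were seeded at 60–80% confluency, cultured overnight, then exposed to compound for 2 h at 37 °C. pAKT-S473 and total AKT measured together by MSD Akt Duplex on 20 µg extract; pAKT expressed as % of total AKT, at least duplicate with independent repeats.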

The subject of assay [3] is p-4E-BP1-T70 in KPL4 breast tumour cell line. The assay is described as follows: Cellular p-4E-BP1-T70 assay. It is filed as cell-based. As to conditions: 2 hours treatment, read-out: P4EBP1-T70 median IC50. Here is the method: The molecular mechanism of action was investigated in a set of experiments to assess the inhibition of the PI3K-AKT-mTOR pathway in responsive cell lines such as KPL4 breast tumour cell line (PIK3CAH1047R, HER20/E and hormone independent). The phospho-substrates of PI3K-AKT-mTOR axis were used as the read-outs to reflect pathway inhibition. Cells were seeded at 60-80% confluency per well in 96-well cell culture plates. After overnight incubation at 37° C. 5% CO2, cells were treated with compounds and vehicle at 37° C. for 2 hours. Thereafter, cells were lysed in 150 μl lysis buffer and the levels of phospho-AKT at T308 and S473 and p-4E-BP1 at T70 sites were determined with the corresponding AlphaScreen® SureFire® assay kits (Perkin Elmer: 4E-BP1 Assay Kit Cat # TRG4E2S10K; Akt 1/2/3 p-Ser 473 #TGRA4S500 and Akt 1/2/3 p-Thr 308 #TGRA3S500 as well as IgG detection Kit #6760617M) as described in the manuals. All measurements where at least done in duplicates and confirmed by independent repetition.

Assay [4] deals with MCF7. The assay is described as follows: Tumor cell proliferation assay (CellTiter-Glo, 72 h), MCF7. As to conditions: Homo sapiens, 72h drug exposure. It is filed as cell-based. The protocol: Compounds were tested in a cell-based assay that measures the capacity of the compounds to inhibit tumour cell proliferation following a 72h drug exposure. Cell viability is determined using CellTiter-Glow® (CTG, Promega, cat# G7571/2/3). The CellTiter-Glo® Luminescent Cell Viability Assay is a homogeneous method to determine the number of viable cells in culture. Detection is based on using the luciferase reaction to measure the amount of ATP from viable cells. The amount of ATP in cells correlates with cell viability. Within minutes after a loss of membrane integrity, cells lose the ability to synthesize ATP, and endogenous ATPases destroy any remaining ATP; thus the levels of ATP fall precipitously.
Cells were plated at 3000-5000 cells/well (depending on the cell lines) in 90 μL growth medium on MTPs (Corning; #3603, black plate, clear flat bottom). For each cell line assayed, cells were plated onto a separate plate for determination of […] at t=0 hour and t=72 hour time points. Following overnight incubation at 37° C., chemiluminescence values for the t=0 samples were determined after adding 10 μl medium and 100 μl CTG solution according to manufacture protocol. Plates for the t=72 hour time points were treated with compounds diluted into growth medium at ten times final concentration added in 10 μL to the cell culture plate. Cells were then incubated for 72 hours at 37° C. Chemiluminescence values for the t=72 hour samples were determined. […] Experiments were controlled using a reference compound as standard.

For assay [5], the target named is His-tagged human recombinant kinase full-length Akt1 (Homo sapiens (Human), UniProt P31749). The assay is described as follows: Akt1 kinase assay (TR-FRET). It is filed as biochemical. Particulars: 10 μM ATP; read-out: Akt1, median IC50. A digest of the protocol:
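Full-length His-tagged Akt1 (about 0.05 ng/μl final) preincubated 15 min at 22 °C with compound in 50 mM TRIS/HCl pH 7.5, 5 mM MgCl2, 1 mM DTT, 0.02% Triton X-100; biotinylated peptide substrate. Phosphopeptide detected by TR-FRET (Eu-chelate antibody to streptavidin-XL665) after 1 h at 22 °C.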

SMILES strings stand for the structures.

Sequence of His-tagged human recombinant kinase full-length Akt1 (P31749 whole entry): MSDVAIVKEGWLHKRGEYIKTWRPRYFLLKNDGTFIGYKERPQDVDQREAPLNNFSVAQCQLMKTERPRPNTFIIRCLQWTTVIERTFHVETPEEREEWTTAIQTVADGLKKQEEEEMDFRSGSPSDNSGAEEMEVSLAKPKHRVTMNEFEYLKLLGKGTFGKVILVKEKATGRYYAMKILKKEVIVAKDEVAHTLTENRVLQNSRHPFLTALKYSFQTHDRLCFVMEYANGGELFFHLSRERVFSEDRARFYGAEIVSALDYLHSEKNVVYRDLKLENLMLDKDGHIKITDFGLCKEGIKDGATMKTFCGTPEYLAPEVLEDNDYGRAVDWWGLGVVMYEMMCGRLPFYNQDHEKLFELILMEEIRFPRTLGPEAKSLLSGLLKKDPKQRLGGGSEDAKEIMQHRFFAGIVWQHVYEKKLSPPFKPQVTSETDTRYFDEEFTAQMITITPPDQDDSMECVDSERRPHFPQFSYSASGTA

As for `COc1cncc(-c2cc(C)cn3c(-c4ccccc4)c(-c4ccc(C5(N)CCC5)cc4)nc23)c1` [Example 2-91], the half-inhibitory concentration (IC50) in assay [1] turned out to be 2000 nM; in assay [2], 678 nM; in assay [3], 1610 nM; in assay [4], 1800 nM.
On the same counts, the results for `NC1(c2ccc(-c3nc4c(Cl)cc(Cl)cn4c3-c3ccccc3)cc2)CCC1` [Example 2-78] are 1900 nM, 100 nM, 1580 nM and 1100 nM.
With `NC1(c2ccc(-c3nc4c(-c5cccc(F)c5)cccn4c3-c3ccccc3)cc2)CCC1` [Example 2-69], the IC50 in assay [1] was determined as 2900 nM; in assay [2] it was 796 nM; in assay [5], 208 nM; in assay [4], 1800 nM.
On to `NC1(c2ccc(-c3nc4ccc(-c5ncc[nH]5)cn4c3-c3ccccc3)cc2)CCC1` [Example 2-130], for which the half-inhibitory concentration (IC50) in assay [1] was 8400 nM; in assay [2], 731 nM; in assay [5] it was 321 nM; in assay [4], 1800 nM.
For `Cc1cc(Br)c2nc(-c3ccc(C4(N)CCC4)cc3)c(-c3ccccc3)n2c1` [Example 2-83], the IC50 in assay [1] amounted to 1800 nM; in assay [2], 189 nM; in assay [3], 615 nM; in assay [4], 2000 nM.
On to `NC(=O)Nc1ccn2c(-c3ccccc3)c(-c3ccc(C4(N)CCC4)cc3)nc2c1` [Example 2-153], for which the IC50 in assay [1] stood at 10000 nM; in assay [2], 1640 nM; in assay [5] it was 457 nM; in assay [4], 400 nM.
Turning to `NC1(c2ccc(-c3nc4cc(Cl)c(Cl)cn4c3-c3ccccc3)cc2)CCC1` [Example 2-80], the IC50 in assay [1] was determined as 2000 nM; in assay [2] it was 912 nM; in assay [3], 1860 nM; in assay [4], 1800 nM.
For the molecule `COC(=O)c1cc(OC)c2nc(-c3ccc(C4(N)CCC4)cc3)c(-c3ccccc3)n2c1` [Example 1-12], the IC50 in assay [1] is 8300 nM; in assay [2], 276 nM; in assay [4], 800 nM.
`COc1cc(-c2cn[nH]c2)cn2c(-c3ccccc3)c(-c3ccc(C4(N)CCC4)cc3)nc12` [Example 13-0, 1-{4-[8-methoxy-3-phenyl-6-(1H-pyrazol-4-yl)-imidazo[1,2-a]pyridin-2-yl]-phenyl}-cyclobutylamine]: the IC50 in assay [1] stood at 1700 nM; in assay [2] it was 89 nM; in assay [5], 81 nM; in assay [4], 900 nM.
In the case of `Cc1ccn2c(-c3ccccc3)c(-c3ccc(C4(N)CCC4)cc3)nc2c1Cl` [Example 2-74], the IC50 in assay [1] turned out to be 1400 nM; in assay [2], 251 nM; in assay [3], 1400 nM; in assay [4], 1600 nM.
As to `CON(C)C(=O)c1ccn2c(-c3ccccc3)c(-c3ccc(C4(N)CCC4)cc3)nc2c1` [Example 2-154], the 50% inhibitory concentration (IC50) was 7500 nM in assay [1], 720 nM in assay [2], 2150 nM in assay [5] and 1700 nM in assay [4].
As to `NC1(c2ccc(-c3nc4c(Br)cc(C(F)(F)F)cn4c3-c3ccccc3)cc2)CCC1` [Example 2-86], the concentration for half-maximal inhibition (IC50) in assay [1] was found to be 2000 nM; in assay [2], 1200 nM; in assay [3], 2510 nM; in assay [4], 1800 nM.
In the case of `NC(=O)c1cc(Br)cn2c(-c3ccccc3)c(-c3ccc(C4(N)CCC4)cc3)nc12` [Example 2-94], the half-maximal inhibitory concentration (IC50) was determined as 1800 nM in assay [1], 58 nM in assay [2], 292 nM in assay [3] and 1700 nM in assay [4].
Regarding `NC1(c2ccc(-c3nc4c(-c5ccc(F)cc5)cccn4c3-c3ccccc3)cc2)CCC1` [Example 2-68, 1-{4-[8-(4-fluorophenyl)-3-phenyl-imidazo[1,2-a]pyridin-2-yl]-phenyl}-cyclobutylamine], the 50% inhibitory concentration (IC50) stood at 3100 nM in assay [1], 748 nM in assay [2], 308 nM in assay [5] and 1900 nM in assay [4].
As to `CCOC(=O)c1cc(Br)c2nc(-c3ccc(C4(N)CCC4)cc3)c(-c3ccccc3)n2c1` [Example 2-77], the half-inhibitory concentration (IC50) in assay [1] came out at 8100 nM; in assay [2], 474 nM; in assay [3], 1720 nM; in assay [4], 1700 nM.
Take `CC(=O)c1ccn2c(-c3ccccc3)c(-c3ccc(C4(N)CCC4)cc3)nc2c1` [Example 2-128]: the IC50 was 4400 nM in assay [1], 471 nM in assay [2], 175 nM in assay [5] and 1700 nM in assay [4].
For `NC(=O)Nc1ccc2nc(-c3ccc(C4(N)CCC4)cc3)c(-c3ccccc3)n2c1` [Example 2-157], the IC50 in assay [1] was 10000 nM; in assay [2], 965 nM; in assay [4], 1100 nM.
`Cc1cc(Cl)cn2c(-c3ccccc3)c(-c3ccc(C4(N)CCC4)cc3)nc12` [Example 2-76]: the IC50 in assay [1] is 2100 nM; in assay [2], 582 nM; in assay [3], 1960 nM; in assay [4] it was 1700 nM.
As to `Cc1c(Br)cn2c(-c3ccccc3)c(-c3ccc(C4(N)CCC4)cc3)nc2c1C` [Example 2-84], the IC50 in assay [1] was 2200 nM; in assay [2], 1340 nM; in assay [3], 3140 nM; in assay [4] it was 1600 nM.
On to `NC1(c2ccc(-c3nc4c(-c5ccn[nH]5)cccn4c3-c3ccccc3)cc2)CCC1` [Example 2-71], for which the half-inhibitory concentration (IC50) in assay [1] came to 1900 nM; in assay [2], 153 nM; in assay [5], 64 nM; in assay [4] it was 1600 nM.
For the molecule `Cc1ccc2nc(-c3ccc(C4(N)CCC4)cc3)c(-c3ccccc3)n2c1` [Example 2-7], the IC50 in assay [1] turned out to be 1900 nM; in assay [2], 487 nM; in assay [5], 203 nM; in assay [3], 3960 nM.
Regarding `N#Cc1ccc2nc(-c3ccc(C4(N)CCC4)cc3)c(-c3ccccc3)n2c1` [Example 1-10], the half-inhibitory concentration (IC50) in assay [1] is 1600 nM; in assay [2] it was 138 nM; in assay [5], 287 nM; in assay [3], 2030 nM.
Turning to `NC1(c2ccc(-c3nc4ccc(-n5cccn5)cn4c3-c3ccccc3)cc2)CCC1` [Example 1-16], the 50% inhibitory concentration (IC50) in assay [1] was 2000 nM; in assay [2] it was 359 nM; in assay [4] it was 1800 nM.
On to `CNC(=O)Nc1ccc2nc(-c3ccc(C4(N)CCC4)cc3)c(-c3ccccc3)n2c1` [Example 2-158], for which the IC50 in assay [1] came to 4700 nM; in assay [2], 384 nM; in assay [5] it was 327 nM; in assay [4] it was 1700 nM.
With `N#Cc1cc(Cl)c2nc(-c3ccc(C4(N)CCC4)cc3)c(-c3ccccc3)n2c1` [Example 15-0, 2-[4-(1-aminocyclobutyl)phenyl]-8-chloro-3-phenylimidazo[1,2-a]pyridine-6-carbonitrile], the IC50 worked out at 1300 nM in assay [1], 30 nM in assay [2], 141 nM in assay [5] and 600 nM in assay [4].
In the case of `COc1cncc(-c2cccn3c(-c4ccccc4)c(-c4ccc(C5(N)CCC5)cc4)nc23)c1` [Example 2-70], the values for the IC50 in assay [1], in assay [2] and in assay [4] were 2000 nM, 298 nM and 1600 nM, respectively.
With `CC(=O)Nc1ccn2c(-c3ccccc3)c(-c3ccc(C4(N)CCC4)cc3)nc2c1` [Example 2-152], the IC50 in assay [1] stood at 1800 nM; in assay [2], 185 nM; in assay [5], 554 nM; in assay [4] it was 1700 nM.
Regarding `NC1(c2ccc(-c3nc4c(-c5ccc6cn[nH]c6c5)cccn4c3-c3ccccc3)cc2)CCC1` [Example 2-72], the IC50 turned out to be 2100 nM in assay [1], 814 nM in assay [2], 390 nM in assay [5] and 1700 nM in assay [4].
